According to patent US20250195530A1, “POLQ INHIBITORS” (ASTRAZENECA AB, priority 2022, published 2025):
Where two headings read alike, the source gives them in different places.

Legend:
DLD-1 BRCA2−/− cells = test: Homologous recombination synthetic lethal inhibition of proliferation, DLD-1 BRCA2-/- (Cell Titre Glo 3D); format: cell-based; conditions: Homo sapiens
Summary of the method: (§1)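 Isogenic DLD-1 pair; BRCA2−/− seeded 3,000 cells/mL and read day 12, wt seeded 1,500 cells/mL and read day 7. 10-pt titration (top 10 μM, 3-fold), re-fed with compound day 6, 37 °C/5% CO2. CTG 3D endpoint; IC50 at 50% signal loss.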

DLD-1 cells = test: Inhibition of proliferation, DLD-1 BRCA2 wt control (Cell Titre Glo 3D); format: cell-based; conditions: Homo sapiens
Summary of the method: as §1

[1] = DLD-1, DLD-1 BRCA2-/- proliferation, column head only partly shown, read-out: POLQ PD Prolif Lumin (converted)
[2] = DLD-1, DLD-1 BRCA2 wt control proliferation, column head only partly shown, read-out: POLQ PD Prolif Lumin (converted)
[3] = DLD-1, 288 h, DLD-1 BRCA2−/− cells, 12 days, read-out: POLQ PD Prolif Lumin BRCA2 −/− mean pIC50 (converted)
[4] = DLD-1, 168 h, DLD-1 BRCA2 wt cells, 7 days, read-out: POLQ PD Prolif Lumin DLD1 mean pIC50 (converted)

IC50 (DLD-1 cells; [4]) [nM]	Structure (SMILES)	IC50 (DLD-1 BRCA2−/− cells; [3]) [nM]	also measured
–	C[C@H](CCOc1cccc(-c2nc3c(OC4(C)CC4)ncnc3n2Cc2cc(Cl)ccc2C#N)c1Cl)C(=O)O [Example U95, (R)-4-(2-chloro-3-(9-(5-chloro-2-cyanobenzyl)-6-(1-methylcyclopropoxy)-9H-purin-8-yl)phenoxy)-2-methylbutanoic acid]	–	IC50 (DLD-1 BRCA2−/− cells; DLD-1, DLD-1 BRCA2 −/−, mean, read-out: POLQ PD Prolif Lumin BRCA2 −/− mean pIC50 (converted)): 2 nM; IC50 (DLD-1 cells; DLD-1, DLD1 BRCA2 wt, mean, read-out: POLQ PD Prolif Lumin DLD1 mean pIC50 (converted)): > 10000 nM
–	CC(CCOc1ccc(-c2nc3c(OC4(C)CC4)ncnc3n2Cc2cccc(Br)c2)c(Cl)c1)C(=O)O (racemic) [Example T279, 4-(4-(9-(3-bromobenzyl)-6-(1-methylcyclopropoxy)-9H-purin-8-yl)-3-chlorophenoxy)-2-methylbutanoic acid]	–	IC50 (DLD-1 BRCA2−/− cells; [1]): 200 nM; IC50 (DLD-1 cells; [2]): > 10000 nM
–	Cc1ccnc(Cn2c(-c3ccc(CCN4CC[C@@H](O)C4)cc3Cl)nc3c(OC4(C)CC4)ncnc32)c1 [Example T511, (R)-1-(3-chloro-4-(6-(1-methylcyclopropoxy)-9-((4-methylpyridin-2-yl)methyl)-9H-purin-8-yl)phenethyl)pyrrolidin-3-ol]	–	IC50 (DLD-1 BRCA2−/− cells; DLD-1, first proliferation column (c5), DLD-1 BRCA2-/-, read-out: POLQ PD Prolif Lumin (converted)): 316 nM; IC50 (DLD-1 cells; DLD-1, second proliferation column (c6), DLD-1 BRCA2 wt control, read-out: POLQ PD Prolif Lumin (converted)): > 10000 nM
6310	Cc1cc(O[C@H]2CCNC2)ncc1-c1nc2c(OC3(C)CC3)ncnc2n1Cc1ccccc1 [Example G11, (S)-9-benzyl-8-(4-methyl-6-(pyrrolidin-3-yloxy)pyridin-3-yl)-6-(1-methylcyclopropoxy)-9H-purine]	1260	–
–	Cc1ccnc(Cn2c(-c3ccc(OCCCS(C)(=O)=O)cc3Cl)nc3c(OC4(C)CC4)ncnc32)c1 [Example T234, 8-(2-chloro-4-(3-(methylsulfonyl)propoxy)phenyl)-6-(1-methylcyclopropoxy)-9-((4-methylpyridin-2-yl)methyl)-9H-purine]	–	IC50 (DLD-1 BRCA2−/− cells; [1]): 200 nM; IC50 (DLD-1 cells; [2]): > 10000 nM
–	CNCCOc1ccc(-c2nc3c(OC4(C)CC4)ncnc3n2Cc2cc(Cl)ccn2)c(Cl)c1 [Example T67, 2-(3-chloro-4-(9-((4-chloropyridin-2-yl)methyl)-6-(1-methylcyclopropoxy)-9H-purin-8-yl)phenoxy)-N-methylethan-1-amine]	–	IC50 (DLD-1 BRCA2−/− cells; DLD-1, DLD-1 BRCA2 −/− cells, mean, read-out: POLQ PD Prolif Lumin BRCA2 −/− mean pIC50 (converted)): 126 nM; IC50 (DLD-1 cells; DLD-1, DLD1 BRCA2 wt cells, mean, read-out: POLQ PD Prolif Lumin DLD1 mean PIC50 (converted)): > 10000 nM
794	CC(C)(Oc1ncnc2c1nc(-c1ccc(OCCN3CCNCC3)cc1Cl)n2Cc1ccccc1)C(F)(F)F [Example 11, 9-Benzyl-8-(2-chloro-4-(2-(piperazin-1-yl)ethoxy)phenyl)-6-((1,1,1-trifluoro-2-methylpropan-2-yl)oxy)-9H-purine]	251	–
7940	CN1CCN(CCOc2ccc(-c3nc4c(OC5(C)CC5)ncnc4n3CCc3ccccc3)c(Cl)c2)CC1 [Example E4, 8-(2-chloro-4-(2-(4-methylpiperazin-1-yl)ethoxy)phenyl)-6-(1-methylcyclopropoxy)-9-phenethyl-9H-purine]	200	–
–	Cc1ccnc(Cn2c(-c3cccc(OCCN(C)C)c3Cl)nc3c(OC4(C)CC4)ncnc32)c1 [Example T237, 2-(2-chloro-3-(6-(1-methylcyclopropoxy)-9-((4-methylpyridin-2-yl)methyl)-9H-purin-8-yl)phenoxy)-N,N-dimethylethan-1-amine]	–	IC50 (DLD-1 BRCA2−/− cells; [1]): 50.1 nM; IC50 (DLD-1 cells; [2]): > 10000 nM
3160	CN1CCN(CCOc2ccc(-c3nc4c(OC5(C)CC5)ncnc4n3Cc3cccnc3)c(Cl)c2)CC1 [Example H7, 8-(2-chloro-4-(2-(4-methylpiperazin-1-yl)ethoxy)phenyl)-6-(1-methylcyclopropoxy)-9-(pyridin-3-ylmethyl)-9H-purine]	1000	–
> 10000	Cc1cc(OCCN2CCN(C)CC2)cc(C)c1-c1nc2c(OC3(C)CC3)ncnc2n1Cc1ccccc1 [Example H4, 9-benzyl-8-(2,6-dimethyl-4-(2-(4-methylpiperazin-1-yl)ethoxy)phenyl)-6-(1-methylcyclopropoxy)-9H-purine]	251	–
> 10000	CC1(Oc2ncnc3c2nc(-c2ccc(OCCN4CCNCC4)cc2Cl)n3Cc2ncccc2Cl)CC1 [Example K5, 8-(2-chloro-4-(2-(piperazin-1-yl)ethoxy)phenyl)-9-((3-chloropyridin-2-yl)methyl)-6-(1-methylcyclopropoxy)-9H-purine]	2510	–
